ChEMBL document CHEMBL4513145, “CO-ADD screening of Biotechnology Research Centre (C.R.B.t) (Algeria) compounds”
≈ marks a conversion by molar mass, not a printed value.

Assays:
HEK293 = assay: cells; assay type: functional; details: Homo sapiens, ATCC CRL1573, HEK293; ASSAY_TEST Inhibition of Cell Viability; detection method Resazurin; Fluorescence (ex560/em590); MEDIA DMEM with 10% FBS; plate type 384well; TC; CORNING #3712; time 18 hr
Staphylococcus aureus = assay: microbe, parasite or virus in culture; details: ATCC 43300, 18 h, ASSAY_TEST Inhibition of Bacterial Growth, detection method Absorption (OD600), MEDIA CAMHB, plate type 384well, NBS, CORNING #3640
Description: Antibacterial activity against Staphylococcus aureus MRSA ATCC 43300 (CO-ADD:GP_020); MIC in CAMBH media, using NBS plates, by OD(600)

Escherichia coli = assay: microbe, parasite or virus in culture; details: ATCC 25922, 18 h, ASSAY_TEST Inhibition of Bacterial Growth, detection method Absorption (OD600), MEDIA CAMHB, plate type 384well, NBS, CORNING #3640
Description: Antibacterial activity against Escherichia coli ATCC 25922 (CO-ADD:GN_001); MIC in CAMBH media using NBS plates, by OD(600)

Klebsiella pneumoniae = assay: microbe, parasite or virus in culture; details: ATCC 700603, 18 h, ASSAY_TEST Inhibition of Bacterial Growth, detection method Absorption (OD600), MEDIA CAMHB, plate type 384well, NBS, CORNING #3640
Description: Antibacterial activity against Klebsiella pneumoniae MDR ATCC 70063 (CO-ADD:GN_003); MIC in CAMBH media using NBS plates, by OD(600)

Pseudomonas aeruginosa = assay: microbe, parasite or virus in culture; details: ATCC 27853, 18 h, ASSAY_TEST Inhibition of Bacterial Growth, detection method Absorption (OD600), MEDIA CAMHB, plate type 384well, NBS, CORNING #3640
Description: Antibacterial activity against Pseudomonas aeruginosa ATCC 27853 (CO-ADD:GN_042); MIC in CAMBH media using NBS plates, by OD(600)

Acinetobacter baumannii = assay: microbe, parasite or virus in culture; details: ATCC 19606, 18 h, ASSAY_TEST Inhibition of Bacterial Growth, detection method Absorption (OD600), MEDIA CAMHB, plate type 384well, NBS, CORNING #3640
Description: Antibacterial activity against Acinetobacter baumannii ATCC 19606 (CO-ADD:GN_034); MIC in CAMBH media using NBS plates, by OD600

Candida albicans = assay: microbe, parasite or virus in culture; details: ATCC 90028, ASSAY_TEST Inhibition of Fungal Growth, detection method Absorption (OD530), plate type 384well, NBS, CORNING #3640
Description: Antifungal activity against Candida albicans ATCC 90028 (CO-ADD:FG_001); MIC in YNB media using NBS plates, by OD630

Description for Cryptococcus neoformans: Antifungal activity against Cryptococcus neoformans H99 ATCC 208821 (CO-ADD:FG_002); MIC in YNB media using NBS plates, by Resazurin OD(600-570)

SMILES | MIC (Cryptococcus neoformans) | MIC (Staphylococcus aureus) | MIC (Escherichia coli) | MIC (Klebsiella pneumoniae) | MIC (Pseudomonas aeruginosa) | MIC (Acinetobacter baumannii) | MIC (Candida albicans) | CC50 (HEK293)
CCCCCCCC1CN(C(=O)OCc2ccccc2)OC1O (stereo not given) | > 32 µg/mL | > 32 µg/mL | > 32 µg/mL | > 32 µg/mL | > 32 µg/mL | > 32 µg/mL | > 32 µg/mL | > 32 µg/mL
CC1CN(C(=O)OCc2ccccc2)OC1O (stereo not given) | 32 µg/mL (≈ 135 µM) | > 32 µg/mL | > 32 µg/mL | > 32 µg/mL | > 32 µg/mL | > 32 µg/mL | > 32 µg/mL | > 32 µg/mL
CC1CN(S(=O)(=O)c2ccc([N+](=O)[O-])cc2)N(C(=O)OC(C)(C)C)C1O (stereo not given) | > 32 µg/mL | > 32 µg/mL | > 32 µg/mL | > 32 µg/mL | > 32 µg/mL | > 32 µg/mL | > 32 µg/mL | 6.19 µg/mL (≈ 16 µM)

Now from value to compound, other results behind:

MIC (Cryptococcus neoformans) | MIC (Staphylococcus aureus) | MIC (Escherichia coli) | MIC (Klebsiella pneumoniae) | MIC (Pseudomonas aeruginosa) | MIC (Acinetobacter baumannii) | MIC (Candida albicans) | SMILES | CC50 (HEK293)
> 32 µg/mL | > 32 µg/mL | > 32 µg/mL | > 32 µg/mL | > 32 µg/mL | > 32 µg/mL | > 32 µg/mL | O=C(OCc1ccccc1)N1CC(Cc2ccccc2)C(O)O1 (stereo not given) | > 32 µg/mL
> 32 µg/mL | 32 µg/mL (≈ 83 µM) | > 32 µg/mL | > 32 µg/mL | > 32 µg/mL | > 32 µg/mL | > 32 µg/mL | CC1CN(S(=O)(=O)c2ccc([N+](=O)[O-])cc2)N(C(=O)OC(C)(C)C)C1=O (stereo not given) | 6.8 µg/mL (≈ 17.6 µM)
